From patent publication US9321752B2, “Pyrazole derivative” (GREEN TECH CO., LTD., priority 2012, dated 2016)

Key:
[1] = molecular target: Recombinant three-repeat microtubule-binding domain (3R-MBD) of tau protein (Homo sapiens, UniProt P10636); assay: Determination of tau aggregation inhibitory activity (thioflavin T fluorescence, heparin-induced); format: biochemical; settings: for Emax: 16 h, maximum inhibition at the concentrations used (0.1, 0.3, 1, 3, and 10 μM); for IC50: 10 μM tau 3R-MBD, 10 μM heparin, 37° C. for 16 hours, thioflavin T
Recombinant three-repeat microtubule-binding domain (3R-MBD) of tau protein, sequence (P10636 2-758 limits assumed): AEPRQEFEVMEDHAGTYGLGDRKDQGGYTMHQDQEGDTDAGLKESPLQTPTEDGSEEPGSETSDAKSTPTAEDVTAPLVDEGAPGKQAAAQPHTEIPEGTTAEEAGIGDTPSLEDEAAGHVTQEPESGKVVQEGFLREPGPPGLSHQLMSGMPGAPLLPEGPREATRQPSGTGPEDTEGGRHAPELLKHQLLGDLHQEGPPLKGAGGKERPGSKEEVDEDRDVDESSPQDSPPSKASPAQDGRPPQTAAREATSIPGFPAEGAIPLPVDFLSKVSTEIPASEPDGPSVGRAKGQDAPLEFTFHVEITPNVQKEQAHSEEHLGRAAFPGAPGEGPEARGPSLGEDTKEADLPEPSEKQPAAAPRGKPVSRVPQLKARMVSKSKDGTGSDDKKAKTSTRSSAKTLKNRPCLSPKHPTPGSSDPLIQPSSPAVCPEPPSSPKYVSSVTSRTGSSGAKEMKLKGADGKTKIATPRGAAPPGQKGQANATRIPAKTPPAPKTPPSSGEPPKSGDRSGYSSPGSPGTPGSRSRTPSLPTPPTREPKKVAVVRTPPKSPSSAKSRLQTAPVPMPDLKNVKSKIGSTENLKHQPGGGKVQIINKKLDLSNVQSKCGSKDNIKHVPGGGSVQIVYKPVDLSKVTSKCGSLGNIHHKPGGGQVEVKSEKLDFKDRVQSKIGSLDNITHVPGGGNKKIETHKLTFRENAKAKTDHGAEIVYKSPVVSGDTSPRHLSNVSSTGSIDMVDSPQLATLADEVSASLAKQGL
Protocol: Recombinant three-repeat microtubule-binding domain (3R-MBD) of tau protein was expressed in E. coli and was purified and used for the experiment. The purified tau solution was diluted with a 50 mM Tris-HCl buffer (pH 7.6) to a final concentration of 10 μM. The test compounds were prepared using dimethylsulfoxide (hereinafter also referred to as DMSO) at 20-fold of their final concentrations and added to the tau solution so that the DMSO concentration would be 5%. To this solution, heparin was added so that the final concentration would be 10 μM and the plate was left to stand at 37° C. for 16 hours. Thioflavin T was added to the plate so that the concentration would be 10 μM and the fluorescence intensity was measured with a fluorescence plate reader (PerkinElmer, Inc.)(excitation wavelength: 440 nm; fluorescence wavelength: 486 nm). The final concentration of each compound at the time of measurement was set at 0.1, 0.3, 1, 3, and 10 μM. The sample to which only DMSO was added was used as a negative control and its fluorescence intensity was taken as 0% inhibitory activity to determine the 50% inhibitory concentration (IC50) of each compound.

[2] = Concentration measurement in brain after oral administration; format: in vivo; settings: ICR mice (male, 7 weeks old), single dose of 5 mg/kg, whole brain, LC/MS/MS
Protocol: Each of the compounds of the present invention shown in Tables 40 and 41 and the compound of Example 2 of JP 2012-229208 A was orally administered to ICR mice (male, 7 weeks old) in a single dose of 5 mg/kg. At 3, 6 and 9 hours after the administration, 1, 3, 6 and 9 hours after the administration, or 1, 3, 6, 9 and 24 hours after the administration, the mice were subjected to perfusion by infusing physiological saline into the heart under inhalational anesthesia with isoflurane, and the whole brain was harvested. Physiological saline was added to the harvested brain in an amount equal to twice the wet weight of the brain and the brain was homogenized. Then, an equal volume of methanol was added thereto, and the mixture was deproteinized. The concentration of each compound in the sample was measured by LC/MS/MS.

Emax [1] [%]	IC50 [1] [nM]	AUC0-24 h in brain [2] [ng · hr/g-tissue]	AUC0-9 h in brain [2] [ng · hr/g-tissue]	Structure (SMILES)
93	–	–	–	CN1CCCN(c2ccc(/C=C/c3cc(/C=C/c4cccn4C)[nH]n3)cc2)CC1 [Example 28-2, 1-methyl-4-[4-[(E)-2-[5-[(E)-2-(1-methylpyrrol-2-yl)vinyl]-1H-pyrazol-3-yl]vinyl]phenyl]-1,4-diazepane]
–	650	–	–	Cn1ccc2ccc(/C=C/c3cc(/C=C/c4ccc(OCc5ccccn5)cc4)n[nH]3)cc21 [Example 17-2, 1-methyl-6-[(E)-2-[3-[(E)-2-[4-(2-pyridylmethoxy)phenyl]vinyl]-1H-pyrazol-5-yl]vinyl]indole]
91	–	1302	–	CN1CCN(c2ccc(/C=C/c3cc(/C=C/c4cccn4C)[nH]n3)cc2)CC1 [Example 27-3, 1-methyl-4-[4-[(E)-2-[5-[(E)-2-(1-methylpyrrol-2-yl)vinyl]-1H-pyrazol-3-yl]vinyl]phenyl]piperazine]
–	840	–	–	COc1cc(OCc2ccccn2)ccc1/C=C/c1cc(/C=C/c2cccc(C)n2)[nH]n1 [Example 25-2, 2-[(E)-2-[3-[(E)-2-[2-methoxy-4-(2-pyridylmethoxy)phenyl]vinyl]-1H-pyrazol-5-yl]vinyl]-6-methylpyridine]
–	–	24639	–	COc1cc(OCCN2CCOCC2)ccc1/C=C/c1cc(/C=C/c2ccc3ccn(C)c3c2)[nH]n1 [Example 14-2, 4-[2-[3-methoxy-4-[(E)-2-[5-[(E)-2-(1-methylindol-6-yl)vinyl]-1H-pyrazol-3-yl]vinyl]phenoxy]ethyl]morpholine]
92	–	–	–	CN1CCCN(c2ccc(/C=C/c3cc(/C=C/c4ccc5ccn(C)c5c4)[nH]n3)cc2)CC1 [Example 43-2, 1-methyl-6-[(E)-2-[3-[(E)-2-[4-(4-methyl-1,4-diazepan-1-yl)phenyl]vinyl]-1H-pyrazol-5-yl]vinyl]indole]
–	510	3499	–	Cn1cccc1/C=C/c1cc(/C=C/c2ccc(OCc3ccccn3)cc2F)n[nH]1 [Example 19-4, 2-[[3-fluoro-4-[(E)-2-[5-[(E)-2-(1-methylpyrrol-2-yl)vinyl]-1H-pyrazol-3-yl]vinyl]phenoxy]methyl]pyridine]
89	–	–	–	COc1cc(OCCN2CCOCC2)ccc1/C=C/c1cc(/C=C/c2cccn2C)[nH]n1 [Example 21-2, 4-[2-[3-methoxy-4-[(E)-2-[5-[(E)-2-(1-methylpyrrol-2-yl)vinyl]-1H-pyrazol-3-yl]vinyl]phenoxy]ethyl]morpholine]
90	640	–	–	Cc1cc(OCc2ccccn2)ccc1/C=C/c1cc(/C=C/c2cccn2C)[nH]n1 [Example 32-5, 2-[[3-methyl-4-[(E)-2-[5-[(E)-2-(1-methylpyrrol-2-yl)vinyl]-1H-pyrazol-3-yl]vinyl]phenoxy]methyl]pyridine]
–	840	–	–	C(=C\c1cc(/C=C/c2ccc3cc[nH]c3c2)[nH]n1)/c1cccc(OCCN2CCOCC2)c1 [Example 53-2, 4-[2-[3-[(E)-2-[5-[(E)-2-(1H-indol-6-yl)vinyl]-1H-pyrazol-3-yl]vinyl]phenoxy]ethyl]morpholine]

The next lines start with the compound.

Structure (SMILES)	Emax [1] [%]	IC50 [1] [nM]	AUC0-24 h in brain [2] [ng · hr/g-tissue]	AUC0-9 h in brain [2] [ng · hr/g-tissue]
Cn1cccc1/C=C/c1cc(/C=C/c2ccc(OCc3ccccn3)cc2)n[nH]1 [Example 20-3, 2-[[4-[(E)-2-[5-[(E)-2-(1-methylpyrrol-2-yl)vinyl]-1H-pyrazol-3-yl]vinyl]phenoxy]methyl]pyridine]	89	550	5306	–
CN1CCN(c2ccc(/C=C/c3cc(/C=C/c4ccc5ccn(C)c5c4)[nH]n3)cc2)CC1 [Example 18-2, 1-methyl-6-[(E)-2-[3-[(E)-2-[4-(4-methylpiperazin-1-yl)phenyl]vinyl]-1H-pyrazol-5-yl]vinyl]indole]	–	–	9781	–
COc1cc(OCCc2ccccn2)ccc1/C=C/c1cc(/C=C/c2ccc3ccn(C)c3c2)[nH]n1 [Example 44-2, 6-[(E)-2-[3-[(E)-2-[2-methoxy-4-[2-(2-pyridyl)ethoxy]phenyl]vinyl]-1H-pyrazol-5-yl]vinyl]-1-methylindole]	–	–	–	869
COc1cc(OCc2ccccn2)ccc1/C=C/c1cc(/C=C/c2cccn2C)[nH]n1 [Example 22-2, 2-[[3-methoxy-4-[(E)-2-[5-[(E)-2-(1-methylpyrrol-2-yl)vinyl]-1H-pyrazol-3-yl]vinyl]phenoxy]methyl]pyridine]	90	660	–	458
COc1cc(OCc2ccccn2)ccc1/C=C/c1cc(/C=C/c2ccc(C)n2C)[nH]n1 [Example 23-2, 2-[[4-[(E)-2-[5-[(E)-2-(1,5-dimethylpyrrol-2-yl)vinyl]-1H-pyrazol-3-yl]vinyl]-3-methoxyphenoxy]methyl]pyridine]	92	590	–	–
COc1cc(OCc2ccccn2)ccc1/C=C/c1cc(/C=C/c2ccnn2C)[nH]n1 [Example 42-2, 2-[[3-methoxy-4-[(E)-2-[5-[(E)-2-(2-methylpyrazol-3-yl)vinyl]-1H-pyrazol-3-yl]vinyl]phenoxy]methyl]pyridine]	–	830	–	–
Cn1ccc2ccc(/C=C/c3cc(/C=C/c4ccc(OCc5ccccn5)cc4F)n[nH]3)cc21 [Example 16-2, 6-[(E)-2-[3-[(E)-2-[2-fluoro-4-(2-pyridylmethoxy)phenyl]vinyl]-1H-pyrazol-5-yl]vinyl]-1-methyl indole]	–	600	–	–
